According to patent US4079134A, “7-Acylamino-3-(5-sulfomethyl-1,3,4-thiadiazol-2-y lthiomethyl)-3-cephem-4-carboxylic acids” (SmithKline Corporation, priority 1976, dated 1978):
Converted amounts (≈) assume the structure as drawn. Counter-ions that a name gives are not always drawn. Like-named read-outs stand apart in the source and are kept apart here.

Experiments:
[1] = test system: Kleb. pneumo.; assay: ED50 in infected mice; assay type: in vivo; details: two determinations; for ED50: Mus musculus, read-out: ED50 in mice against Kleb. pneumo.
Protocol: (s.c.); 25 and 10 mg/kg against E. coli as well as 8.7 and 8.5 mg/kg against Kleb. pneumo. (p.o.).

[2] = test system: E. coli; assay: ED50 in infected mice; assay type: in vivo; details: two determinations; for ED50: Escherichia coli, read-out: ED50 in mice against E. coli
[3] = test system: S. aureus HH 127; assay: MIC in vitro; assay type: cell-based; details: Staphylococcus aureus
Protocol: (§1) The compounds of Formula I have antibacterial activity against either Gram positive or Gram negative bacteria with minimum inhibitory concentrations (MIC's) in vitro from 0.4 to 200 μg/ml. Test results for 7-D-mandelamido-3-(5-sulfomethyl-1,3,4-thiadiazol-2-ylthiomethyl)-3-cephem-4-carboxylic acid, disodium salt, tetrahydrate (A) are: […]

[4] = test system: S. aureus SK 23390; assay: MIC in vitro; assay type: cell-based; details: Staphylococcus aureus
Protocol: as §1

[5] = test system: Serratia marc. ATCC 13880; assay: MIC in vitro; assay type: cell-based; details: ATCC13880, read-out: minimum inhibitory concentration (MIC)
Protocol: as §1

[6] = test system: Entero. cloacae HH 31254; assay: MIC in vitro; assay type: cell-based; details: Enterobacter cloacae, HH31254, read-out: minimum inhibitory concentration (MIC)
Protocol: as §1

[7] = test system: Salmonella ATCC 12176; assay: MIC in vitro; assay type: cell-based; details: ATCC12176, read-out: minimum inhibitory concentration (MIC)
Protocol: as §1

[8] = test system: Strep. Faecalis HH 34358; assay: MIC in vitro; assay type: cell-based; details: Enterococcus faecalis, read-out: minimum inhibitory concentration (MIC)
Protocol: as §1

[9] = test system: Pseudo. aeru. HH 63; assay: MIC in vitro; assay type: cell-based; details: read-out: minimum inhibitory concentration (MIC)
Protocol: as §1

[10] = test system: S. aureus villaluz SK 70390; assay: MIC in vitro; assay type: cell-based; details: Staphylococcus aureus, read-out: minimum inhibitory concentration (MIC)
Protocol: as §1

[11] = test system: Kleb. pneumo. SK 4200; assay: MIC in vitro; assay type: cell-based; details: read-out: minimum inhibitory concentration (MIC)
Protocol: as §1

[12] = test system: Proteus morgani 179; assay: MIC in vitro; assay type: cell-based; details: read-out: minimum inhibitory concentration (MIC)
Protocol: as §1

[13] = test system: Kleb. pneumo. SK 1200; assay: MIC in vitro; assay type: cell-based; details: read-out: minimum inhibitory concentration (MIC)
Protocol: as §1

[14] = test system: Entero. aerog. ATCC 13048; assay: MIC in vitro; assay type: cell-based; details: read-out: minimum inhibitory concentration (MIC)
Protocol: as §1

[15] = test system: E. coli SK 12140; assay: MIC in vitro; assay type: cell-based; details: Escherichia coli
Protocol: as §1

[16] = test system: E. coli HH 33779; assay: MIC in vitro; assay type: cell-based; details: Escherichia coli
Protocol: as §1

[17] = test system: Proteus mirabilis PN-444; assay: MIC in vitro; assay type: cell-based
Protocol: as §1

[18] = HH127, in vitro, S. aureus HH 127, read-out: minimum inhibitory concentration (MIC)
[19] = SK23390, in vitro, S. aureus SK 23390, read-out: minimum inhibitory concentration (MIC)
[20] = in vitro, S. aureus villaluz SK 70390
[21] = SK12140, in vitro, E. coli SK 12140, read-out: minimum inhibitory concentration (MIC)
[22] = HH33779, in vitro, E. coli HH 33779, read-out: minimum inhibitory concentration (MIC)
[23] = PN444, in vitro, Proteus mirabilis PN-444, read-out: minimum inhibitory concentration (MIC)

Compound | ED50 ([1]; po) | ED50 ([1]; sc) | ED50 in mice against Kleb. pneumo. ([1]; p.o.) | ED50 ([2]; sc) | MIC [3, 18] | MIC [4, 19] | MIC [5] | MIC [6] | MIC [7] | MIC [8] | MIC [9] | MIC [10, 20] | MIC [11] | MIC ([12]; in vitro, Proteus morgani 179) | MIC [13] | MIC [14] | MIC [15, 21] | MIC [16, 22] | MIC [17, 23] | other results
CC1=C(C(=O)O)N2C(=O)[C@@H](NC(=O)[C@H](N)c3ccccc3)[C@H]2SC1 [Cephalexin] | 19 mg/kg | 16.5 mg/kg | 10 mg/kg | 12.5 mg/kg |  |  |  |  |  |  |  |  |  |  |  |  |  |  |  | ED50 ([2]; po): 21.5 mg/kg; ED50 in mice against E. coli ([2]; p.o.): 18 mg/kg
Cc1nnc(SCC2=C(C(=O)O)N3C(=O)[C@@H](NC(=O)Cn4cnnn4)[C@H]3SC2)s1 [Cefazolin] |  |  |  |  | 0.4 µg/mL (≈ 0.88 µM) | 0.2 µg/mL (≈ 0.44 µM) | > 200 µg/mL | 0.8 µg/mL (≈ 1.76 µM) | 0.8 µg/mL (≈ 1.76 µM) | 6.3 µg/mL (≈ 13.9 µM) | > 200 µg/mL | 100 µg/mL (≈ 220 µM) | 1.6 µg/mL (≈ 3.52 µM) | > 200 µg/mL | 0.8 µg/mL (≈ 1.76 µM) | 1.6 µg/mL (≈ 3.52 µM) | 0.8 µg/mL (≈ 1.76 µM) | 1.6 µg/mL (≈ 3.52 µM) | 3.1 µg/mL (≈ 6.82 µM) | 
CC(=O)OCC1=C(C(=O)O)N2C(=O)[C@@H](NC(=O)Cc3cccs3)[C@H]2SC1 [Cephalothin] |  |  |  |  |  |  | > 200 µg/mL | 6.3 µg/mL (≈ 15.9 µM) | 1.6 µg/mL (≈ 4.04 µM) | 6.3 µg/mL (≈ 15.9 µM) | > 200 µg/mL |  | 1.6 µg/mL (≈ 4.04 µM) |  | 1.6 µg/mL (≈ 4.04 µM) | 12.5 µg/mL (≈ 31.5 µM) |  |  |  | MIC ([3]; HH127, read-out: minimum inhibitory concentration (MIC)): 0.4 µg/mL (≈ 1.01 µM); MIC ([4]; SK23390, read-out: minimum inhibitory concentration (MIC)): 0.1 µg/mL (≈ 0.252 µM); MIC [10]: 50 µg/mL (≈ 126 µM); MIC [12]: > 200 µg/mL; MIC ([15]; SK12140, read-out: minimum inhibitory concentration (MIC)): 3.1 µg/mL (≈ 7.82 µM); MIC ([16]; HH33779, read-out: minimum inhibitory concentration (MIC)): 6.3 µg/mL (≈ 15.9 µM); MIC ([17]; Proteus mirabilis, PN444, read-out: minimum inhibitory concentration (MIC)): 0.8 µg/mL (≈ 2.02 µM)
O=C(O)C1=C(CSc2nnc(CS(=O)(=O)O)s2)CS[C@@H]2[C@H](NC(=O)[C@H](O)c3ccccc3)C(=O)N12 [Compound A, 7-D-mandelamido-3-(5-sulfomethyl-1,3,4-thiadiazol-2-ylthiomethyl)-3-cephem-4-carboxylic acid, disodium salt, tetrahydrate] | 8.7 mg/kg | 0.78 mg/kg | 8.5 mg/kg | 0.3 mg/kg | 1.6 µg/mL | 0.4 µg/mL | 25 µg/mL | 0.4 µg/mL | 0.4 µg/mL | 25 µg/mL | > 200 µg/mL | 200 µg/mL | 0.4 µg/mL | 1.6 µg/mL | 0.4 µg/mL | 1.6 µg/mL | 0.4 µg/mL | 0.8 µg/mL | 0.4 µg/mL | ED50 in mice against Kleb. pneumo. ([1]; s.c.): 0.62 mg/kg; ED50 in mice against E. coli ([2]; s.c.): 0.39 mg/kg
